Reference: US20140093884A1, “Process for Identifying Novel Anti-Inflammatory Molecules with Reduced Direct Transrepression of Genes Induced by Glucocorticoids” (UNIVERSITE DE STRASBOURG, priority 2011, published 2014)

Tests used:
[1] = tested on: (+)GRE (PGL3(VDRE) (+)GRE luciferase reporter); assay: Luciferase reporter assay in A549 cells, PGL3(VDRE) (+)GRE vector; assay type: cell-based, human; details: FA
Procedure: Luciferase reporter assay. A549 cells seeded on 24-well tissue culture plates overnight at 70% confluency were transfected with 100 ng pCMV β galactosidase, 200 ng pGL3 reporter plasmids and wherever indicated, with 600 ng pSG5 hVDR plasmid (Green et al., 1988) into each well and maintained in medium containing charcoal treated FCS. 24 hours post-transfection, medium was changed and different compounds were added to it for 6 hours. Final concentrations of the compounds are: FA, 500 nM; Dex or RU24858, 300 nM or 500 nM (wherever 300 nM Dex or RU was used, it is indicated in the figure, in all other cases, 500 nM concentration was used); active vitamin D3, 1 μM; IL-1β, 5 ng/ml; BAY 11-7082, 5 μM, JNK inhibitor II, 25 μM. Luciferase assay was carried out as instructed (Promega). Normalized values are reported as the mean±SEM; each value originates from at least three individual transfections with assays performed in duplicate. […]

GR binding to IR nGREs = target: T1, GR binding to IR nGREs (Homo sapiens, UniProt P04150); assay: ChIP assay of GR binding to IR0 to IR5 nGRE reporter plasmids in A549 cells; assay type: cell-based; details: upon FA addition
T1 construct: GR-expressing cells are in vitro cultured cells, preferably human lung epithelial carcinoma cells A549; endogenous in cells; host or cells: A549 (CCL-185, ATCC)
T1 sequence (P04150 1-777): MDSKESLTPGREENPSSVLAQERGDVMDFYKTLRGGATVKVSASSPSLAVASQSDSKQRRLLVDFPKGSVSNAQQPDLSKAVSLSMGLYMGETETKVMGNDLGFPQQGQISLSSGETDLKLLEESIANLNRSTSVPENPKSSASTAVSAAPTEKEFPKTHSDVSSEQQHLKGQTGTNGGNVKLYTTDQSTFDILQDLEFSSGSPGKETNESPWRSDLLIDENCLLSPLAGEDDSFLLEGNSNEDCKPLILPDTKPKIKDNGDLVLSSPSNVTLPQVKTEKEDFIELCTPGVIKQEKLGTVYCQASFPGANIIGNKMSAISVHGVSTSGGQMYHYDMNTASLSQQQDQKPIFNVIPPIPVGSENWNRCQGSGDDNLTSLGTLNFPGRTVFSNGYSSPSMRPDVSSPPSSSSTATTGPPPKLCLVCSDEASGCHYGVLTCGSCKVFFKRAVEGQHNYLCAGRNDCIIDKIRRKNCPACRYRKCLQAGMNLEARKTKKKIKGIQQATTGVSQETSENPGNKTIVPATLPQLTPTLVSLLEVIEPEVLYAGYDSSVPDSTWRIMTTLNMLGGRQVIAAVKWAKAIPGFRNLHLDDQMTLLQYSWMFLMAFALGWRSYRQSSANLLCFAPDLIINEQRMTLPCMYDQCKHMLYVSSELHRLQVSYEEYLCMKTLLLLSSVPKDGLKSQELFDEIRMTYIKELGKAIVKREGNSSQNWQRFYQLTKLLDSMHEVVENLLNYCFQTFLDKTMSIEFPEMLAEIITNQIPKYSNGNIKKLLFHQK
Procedure: For ChIP assays to test GR and cofactor binding to the nGRE, +GRE or NFκB region of various luciferase reporter plasmids, ˜60% confluent A549 cells in 100 mm TC dish were transfected with 2 μg of respective plasmids using fugene 6 reagent (Roche) and maintained in charcoal treated FCS containing medium. 44 hours post-transfection, 500 nM FA or Dex or RU24858 and/or 5 μM RU486, 5 ng/ml IL-1β (final conc.) was added to the medium for 2 hours, followed by formaldehyde treatment and processing as described above.
To investigate whether the 1 bp spacer between the inverted repeated motifs of TSLP IR1 nGRE was critical for its repressing function, pGL3-based luciferase plasmids containing the VDRE and TSLP nGRE motifs spaced by 0 to 5 bases (IR0 to IR5 nGREs) were transfected into A549 cells.

TSLP [2] = assay: Nuclear run-on assay of TSLP expression; assay type: in vivo, mouse
Description: Nuclear run-on, EMSA, 3C and Luciferase assays. Nuclear Run-on and EMSA (Carey and Smale., 2001), 3C (Liu et al., 2005) and Luciferase assays (Promega kit) were as described. […] Although the basal TSLP level was similar in vehicle-treated WT and GR^ep−/− mice, FA blocked MC-induced TSLP expression in WT, but not in GR^ep−/− mice (not shown).

TSLP [3] = assay: TSLP transcript levels in mouse ear epidermis after topical treatment (Q-RT-PCR); assay type: in vivo; details: WT mice
Description: Mice. […] Real time PCR. Total RNA was reverse transcribed using hexamers, followed by Q-PCR, as reported (Li et al., 2005). The GC agonist fluocinolone acetonide (FA) was applied to ears of mice concomitantly treated with the “low-calcemic” Vitamin D3 (VitD3) analog MC903 (Calcipotriol; hereafter called MC) to trigger TSLP expression (Li et al., 2006). […] As expected, the expression of the GC-inducible GPX3 (glutathione peroxidase 3) gene which harbours a (+)GRE (Tuckermann et al., 1999) was enhanced by FA (FIG. 10) and inhibited by RU co-treatment, while FA or RU had no effect on MC-dependent expression of the CYP24A1 gene (a VitD3 target) (FIG. 10). […] Although the basal TSLP level was similar in vehicle-treated WT and GR^ep−/− mice, FA blocked MC-induced TSLP expression in WT, but not in GR^ep−/− mice (not shown).

With `CC1(C)O[C@@H]2C[C@H]3[C@@H]4C[C@H](F)C5=CC(=O)C=C[C@]5(C)[C@@]4(F)[C@@H](O)C[C@]3(C)[C@]2(C(=O)CO)O1` [FA, fluocinolone acetonide] the “luciferase expression when IR1 nGRE replaced by a (+)GRE” value [1] was “increase”, the “GR binding to IR0 nGRE (ChIP)” value (GR binding to IR nGREs) was “less efficient” and the “GR binding to IR1 and IR2 nGREs (ChIP)” value (GR binding to IR nGREs) was “similarly bound”. The “GR binding to IR3, IR4 and IR5 nGREs (ChIP)” value (GR binding to IR nGREs) was “not detectable”, the “nature of GR-mediated FA inhibition of TSLP expression” value (TSLP [2]) was “transcriptional” and the “MC-induced TSLP expression, effect of FA” value (TSLP [3]) was “blocked”. For the same molecule, the “inhibition of basal TSLP RNA level” value (TSLP [3]; ears, topical FA) was roughly 50% and the “MC-induced increase of TSLP RNA, effect of FA” value (TSLP [3]; ears, topical, MC903 co-treatment) was “fully blocked”.
